Experiment [1] has as its system HCV replicon in Huh7 cells. Description: HCV replicon cell-based assay. The note with it: Hepatitis C virus. More on the design: species or system HCV strain 1B. The procedure, abridged:
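Huh7 cells carrying a genotype 1b subgenomic replicon (NS3-NS5B, neo) treated 4 days at 37° C with compound (0.5% DMSO final). NS3 protease activity read in lysates with 10 μM FRET peptide (340/490 nm, kinetic), giving EC50. Confirmed by Taqman qRT-PCR of HCV RNA and a Renilla luciferase replicon.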
(In antiviral work, replicon cells carry a viral genome segment that copies itself.)

Experiment [2] concerns the target T1, human sputum elastase (HS) (Homo sapiens, UniProt P08246).
T1 construct: purchased Sigma
T1 sequence (P08246 30-267): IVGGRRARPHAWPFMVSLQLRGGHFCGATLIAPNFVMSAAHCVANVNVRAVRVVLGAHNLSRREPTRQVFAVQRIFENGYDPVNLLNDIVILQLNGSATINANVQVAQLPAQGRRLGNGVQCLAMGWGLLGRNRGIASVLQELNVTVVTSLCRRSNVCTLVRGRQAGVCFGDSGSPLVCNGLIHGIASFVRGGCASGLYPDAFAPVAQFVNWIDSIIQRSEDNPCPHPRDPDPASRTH
Description: Specificity assay, human sputum elastase. The class given is biochemical. Particulars: 2 hr pre-incubation at RT. As for the experimental part: (§1) The specificities of compounds of the present invention were determined against a variety of serine proteases: human sputum elastase (HS), porcine pancreatic elastase (PPE) and human pancreatic chymotrypsin and one cysteine protease: human liver cathepsin B. In all cases a 96-well plate format protocol using calorimetric p-nitroaniline (pNA) substrate specific for each enzyme was used as described previously (Patent WO 00/09543) with some modifications to the serine protease assays. All enzymes were purchased from Sigma while the substrates were from Bachem.
(§2) Each assay included a 2 hr enzyme-inhibitor pre-incubation at RT followed by addition of substrate and hydrolysis to ˜30% conversion as measured on a Spectramax Pro microplate reader. Compound concentrations varied from 100 to 0.4 μM depending on their potency. […]
(§3) The percentage of inhibition was calculated using the formula: [1-((UVinh−UVblank)/(UVctl−UVblank))]×100 […]

The target of another experiment is T2, human liver cathepsin B (Homo sapiens, UniProt P07858).
T2 construct: purchased Sigma
Description: Specificity assay, cathepsin B. The class given is biochemical. The note with it: 2 hr pre-incubation at RT. On the procedure:
as §1, §2, §3

The term EC50 denotes the concentration needed to bring the measured effect to its halfway point. For orientation: IC50 means the concentration at which inhibition is half-maximal. A high value points to weaker potency.

The structures appear in SMILES notation. Where two headings read alike, the source gives them in different places.

Consider `C=CC1C[C@]1(NC(=O)[C@@H]1C[C@@H](OC(=O)Nc2ccccc2-c2ccccc2)CN1C(=O)[C@@H](NC(=O)OC(C)(C)C)C(C)(C)C)C(=O)NS(=O)(=O)C1CC1` (stereo partly drawn) [Compound 8, BocNH-P3(t-BuGly)-P2(Hyp(O—CO(NH-biphen-2-yl)))-P1(1R,2S VinylAcca)—CONHSO2Cyclopropane], for which the EC50 in experiment [1] (Huh-7, 96 h, HCV replicon, 4 days, read-out: EC50 range) was 100 to 1000 nM; in experiment [1] (Huh-7, HCV replicon, read-out: EC50 value in the replicon assay) it was 284 nM. The IC50 (in experiment [2]; against human liver cathepsin B) was > 100000 nM in each case.

Values taken from US7041698B2, “Hepatitis C virus inhibitors” (Bristol-Myers Squibb Company, priority 2002, dated 2006).
